The record followed here is patent publication US6376175B1, “Methods of discovering chemicals capable of functioning as gene expression modulators” (OSI Pharmaceuticals, Inc., priority 1989, dated 2002).

One data set has as its system G-CSF promoter. The experiment in a line: G-CSF promoter-luciferase induction by known inducers, clone G 1002 (5637 cells). The data set is classed as cell-based, human. The settings on record: 10.5 hours, serum-containing media; 8.3 ng/ml TNF-alpha, 20 ng/ml PMA, 0.5 ng/ml Interleukin-1 beta, or mixtures as labelled. An excerpt: Cloning of G-CSF sequences is described in Experimental Details, section B-3. In order to correctly fuse the G-CSF upstream sequences to the luciferase start codon, oligonucleotides were synthesized which contain the G-CSF leader sequence from +15 to the ATG (32), and were cloned into pUC19 to create pGUC84 (FIG. 29). […] The G-CSF-oligonucleotide-containing NcoI/ScaI fragment from pGUC84 was then isolated and ligated to the luciferase-containing NcoI/ScaI fragment from pUV100 to create pGUV100 (FIG. 30). Following this, the PstI fragment of the G-CSF promoter was isolated form pJM710 (FIG. 7) and inserted into the PstI site in pGUV100 generating pGUV1(FIG. 31). The rest of the G-CSF promoter clone was added by ligating the G-CSF-luciferase containing SfiI/ScaI fragment from pGUV1 to the appropriate SfiI/ScaI fragment from pJM710, creating the plasmid pGUV2 (FIG. 32). The XbaI fragment from pGUV2 containing the G-CSF-luciferase fusion was then cloned into pUV103 previously digested with XbaI/SpeI, generating pGUV140 (FIG. 33). Finally, a TK-Neo cassette (Section C) was included by ligating the ScaI/XbaI fragment from pGUV140 which contains the G-CSF-luciferase fusion into pTKNEO103 previously digested with ScaI/XbaI, yielding the final vector pGUV150 (FIG. 34).
All the following constructs were transfected into 5637 bladder carcinoma cells either by electroporation using a BRL (Gaithersburg, Md.) Cellporator electroporation device or by lipofection using BRL lipofectin and following the manufacturer's protocol. For electroporation, cells were trypsinized, treated with Soybean trypsin inhibitor (1 mg/ml), washed three times in Dulbecco's modified Eagle's medium (DMEM) without pH indicator, and 1 ml of cell suspension in DMEM was electroporated at room temperature and at a cell density of 5 million cells per ml at a voltage of 250 V and a capacitance of 1180 microFarad with the electroporation device set at low resistance. In previous experiments these parameters had been determined to result in optimal electroporation efficiency. About 15 min after electroporation cells were recovered from the disposable electroporation containers (BRL, Gaithersburg, Md.) and plated in RPMI containing 10% fetal calf serum. 2 days after electroporation 0.4 mg/ml G 418 were added and clonal cell colonies were picked 14-20 days after transfection. Clones were first analysed for luciferase expression using Lysis Buffer 1 without bovine serum albumin (see Section F) and those testing positive expanded further and frozen in liquid nitrogen. Further analysis of 6 clones (G 1002, G 2005, G 2071, G 2085, G 3014, G3031) included Southern blotting, reaction to known inducers, satisfactory attachment to microtiter plates and acceptable standard deviation in multiple luciferase expression assays. Clones G 2005 and G 2085 were derived from 5637 cells lipofected with 100 ug/ml of linearized pGVU150 (FIG. 34), G 3031 descends from cells electroporated with 100 ug/ml of linearized pGVU150, whereas 200 ug/ml of the same plasmid were used to generate G 3014. Cotransfection of circular pGVU140 (FIG. 33) with circular pTKNeo3 (FIG. 19) was used to generate clones G 1002 and G 2071. While G 1002 resulted from co-electroporation of 50 and 5 ug/ml of the two plasmids, G 2071 descends from cells lipofected with 100 and 10 ug.
Cell clones with correctly integrated promoter/reporter constructs were analysed for correct reaction to known transcriptional inducers. […] Both TNF-alpha- and PMA-induction levels of clone G 1002 were influenced by the presence or absence of epidermal growth factor (EGF). […] The 9.3fold induction by PMA in the absence of EGF was reduced to 5.6fold by including EGF in the serum-free incubation mixture. Similar differences were observed, when EGF was substituted by 10% fetal calf serum.

The next data set has as its system human G-CSF promoter. The data set is classed as cell-based. Conditions: G21 cells, 6 hours, high-throughput screen; for GCSF fold inhibition relative to solvent control: Table 2 B) transcriptional inhibitors. An excerpt: A human bladder carcinoma cell line (U5637, ATCC number HTB 9) was used for transfection of plasmids containing the human Granulocyte-Colony Stimulating Factor (G-CSF) promoter (see below) and was maintained in RPMI medium supplemented with 10% FCS. For HTP screening, transfected 5637 clones were transferred to a serum free defined medium identical to that used for the NIH/3T3 clones.
The sequences of OL-1, OL-2 and OL-5 recognize the G-CSF promoter region, OL-4 recognizes the first intron/exon junction and OL-3 recognizes sequences within the second exon (32). One of the clones isolated from the leukocyte library using these oligonucleotide probes contains a 3.5 kb SalI-BamHI fragment of G-CSF genomic sequence consisting of 3.3 kb of promoter sequence and two hundred base pairs of the coding region. This fragment was inserted into the vector pGEM-7-Zf (Promega, Madison, Wis.) which had previously been digested with SalI/BamHI, resulting in the vector pJM710 (FIG. 7). pJM710 was then digested with PstI, and the resulting 1.6 kb fragment containing G-CSF upstream sequences and the first 15 bases of the G-CSF leader sequence was inserted into the PstI site of pGEM5-Luci (FIG. 8) to generate pG-Lucl (FIG. 9). This construct was then used for transfection of 5637 human bladder carcinoma cells as described below in section E3. pGEM5-Luci (FIG. 8) had previously been constructed by inserting the […]/SalI fragment from pSVLuci (FIG. 2) containing the luciferase coding sequence and the SV40 late polyadenylation signal into pGEM 5-Zf (Promega, Madison Wis.) digested with XhoI/SalI.
pG-LUC1 (FIG. 9) and pRSVNeo were co-transfected into 5637 human bladder carcinoma cells as described above. Selection of G418 resistant clones was as described above except for using a concentration of 0.1 mg/ml G418. Analysis of cell clones was performed as above except that a known inducer of G-CSF expression (1-5 µg/ml lipopolysaccharide (LPS), E. coli serotype 055:b5, Difco, Detroit, Mich. or Sigma, St. Louis, Mo.) was used in place of dexamethasone.
(§1) Cell plating: Dynatech Microlite 96 well plates were custom pretreated for cell attachment by Dynatech Laboratories, Inc. (Chantilly, Va.). Alternatively, the 96 well plates were treated with 50 µl per well of human fibronectin (hFN, 15 µg/ml in PBS, Collaborative Research, Bedford, Mass.) overnight at 37 C. hFN-treated plates were washed with PBS using an Ultrawash 2 Microplate Washer (Dynatech Labs), to remove excess hFN prior to cell plating. M10, 532, and G21 cells maintained in their respective serum media (with 0.2 mg/ml G418) were washed with PBS, harvested by trypsinization, and counted using a hemocytometer and the Trypan Blue exclusion method according to protocols provided by Sigma, St. Louis, Mo. Chemical Company. Cells were then diluted into serum free defined media (with 0.2 mg/ml G418), and 0.2 ml of cell suspension per well was plated onto Dynatech treated plates (532 and G21) or hFN-treated plates (M10) using a Cetus Pro/Pette (Cetus, Emeryville Calif.). Plates were incubated overnight at 37 C in a humidified 5% CO2 atmosphere.
(§2) Addition of Chemicals to Cells: Chemicals from the Oncogene Science file were dissolved in DMSO at concentrations of 3-30 mg/ml. A liquid handling laboratory work station (RSP 5052, Tecan U.S. Chapel Hill, N.C.) was used to dilute the chemicals (three dilutions; 5 fold, 110 fold, and 726 fold). 10 11 of each dilution were added to each of quadruplicate samples of cells contained in the wells of 96-well Dyantech Microlite Plates. […]

In data set [1] the test system is mouse mammary tumor virus (MMTV) promoter. The data set is classed as cell-based. The settings on record: M10 cells, 6 hours, high-throughput screen; for MMTV fold inhibition relative to solvent control: Table 2 B) transcriptional inhibitors.
Text: NIH/3T3 fibroblast cells (ATCC number CRL 1658) were used for transfection of plasmids containing the mouse mammary tumor virus (MMTV) promoter linked to firefly luciferase coding sequences (see below). Cells were propagated in Dulbecco's modified Eagle's medium (DMEM) obtained from Gibco, Grand Island, N.Y. and supplemented with 10% FCS. For high-throughput (HTP) screening, transfected NIH/3T3 clones were transferred to serum free defined medium consisting of Iscove's modified Eagle's medium (IMEM) and Ham's F12 medium (1:1) supplemented with growth factors, hormones and nutrients as described previously (43).
The firefly luciferase gene was removed from the plant expression plasmid pDO432 (33) (FIG. 1) as a 1.9 kb BamHI fragment and cloned into the BamHI site of pSVL (Pharmacia, Piscataway, N.J.), a mammalian expression vector containing the SV40 promoter. The resulting plasmid (pSVLuci; FIG. 2) was digested with XhoI and SalI to produce a 2.4 kb fragment containing the luciferase coding sequences and the SV40 late polyadenylation site. This fragment was inserted into the XhoI site of pMSG (Pharmacia, Piscataway, N.J.), a eukaryotic expression vector containing the MMTV promoter. The resulting MMTV promoter-luciferase fusion plasmid (pMLuci; FIG. 3) was used to transfect NIH/3T3 cells as described below (section E1). Similar constructs can be made using luciferase vectors from Clontech (Palo Alto, Calif.).
pMluci (FIG. 3) and pSV2Neo, an antibiotic resistance plasmid (34), were co-transfected into NIH/3T3 mouse fibroblast cells using the calcium phosphate precipitation method (15) with a commercially available kit (Pharmacia, Piscataway N.J.). Two days later, cells were transferred to media containing 0.4 mg/ml G418 and were grown for an additional 10-14 days. G418-resistant clones were isolated by standard methods. Once sufficient cell numbers were obtained, clones were analyzed based on several criteria: constitutive luciferase production, induction of luciferase expression by dexamethasone (1 μm, Sigma, St. Louis, Mo.), satisfactory attachment to microtiter plates used in the high-throughput screen (see Section G) and acceptable standard deviation in multiple luciferase expression assays (see below for assay protocol). This analysis was carried out using the luciferase assay conditions described in sections F and G. Of the clones which satisfied the above criteria for the high throuphput screen, one clone, M10, was selected for use.
as §1, §2

The test system of data set [2] is human growth hormone promoter. The format is cell-based. The settings on record: 532 cells, 6 hours, high-throughput screen; for hGH fold inhibition relative to solvent control: Table 2 B) transcriptional inhibitors.
Text: A rat pituitary cell line, designated GC, (4, 25) was used for transfection of plasmids containing the human growth hormone promoter (see below) and was maintained in DMEM and Ham's F12 medium (1:1), supplemented with 12.5% FCS. For HTP screening, transfected GC clones were transferred to serum free defined medium consisting of DMEM and Ham's F12 medium (1:1) supplemented with growth factors, hormones and nutrients as described previously (17, 5).
The SalI-XhoI fragment of pSVLuci (FIG. 2) containing the luciferase coding sequences and the SV40 late polyadenylation site was inserted into pUC 8 (Biorad, Richmond, Calif.), which has been linearized by a SmaI/HinCII digestion and ligated to XhoI linkers (New England Biolabs, Beverly, Mass.). The new plasmid thus generated (pUXLuci; FIG. 4) was linearized by XhoI digestion followed by incubation with the Klenow fragment of E. coli DNA polymerase and the four deoxyribonucleotides to fill in the single-stranded ends of the vector. This linear (5.1 KB) form of pUXLuci was then ligated to the filled-in 550 bP HindIII-XbaI fragment of the plasmid phGH:CAT (FIG. 5) (25). Human growth hormone promoter sequences located on the HindIII-XbaI fragment were thus fused to the luciferase coding sequences located on pUXLuci generating the plasmid phGH-Luci (FIG. 6), which was used in transfections of GC cells as described below (Section E2).
phGH-LUCI (FIG. 6) and pRSVNeo, an antibiotic resistance plasmid (14), were co-transfected into GC rat pituitary cells as described above. Selection of G418-resistant cell clones was described above except for using a concentration of 0.2 mg/ml G418. Analysis of the cell clones was performed as above, except that known inducers of hGH expression (10-100 nM rat growth hormone releasing factor (rGRF, Bachem, Torrance, Calif.) and 10 μm forskolin (Sigma, St. Louis, Mo.) were used in place of dexamethasone. One clone, 532, was selected for further use in the high throughput screen.
as §1
Addition of Chemicals to Cells: Chemicals from the Oncogene Science file were dissolved in DMSO at concentrations of 3-30 mg/ml. A liquid handling laboratory work station (RSP 5052, Tecan U.S. Chapel Hill, N.C.) was used to dilute the chemicals (three dilutions; 5 fold, 110 fold, and 726 fold). 10 11 of each dilution were added to each of quadruplicate samples of cells contained in the wells of 96-well Dyantech Microlite Plates. Cell plates were then shaken on a microplate shaker (Dyantech, medium setting, 30 sec.) and incubated for 6 hours at 37 C, 5% CO2.
Bioluminescence Assay: After incubation with OSI-file chemicals, cell plates were washed 3 times with PBS using an Ultrawash 2 Microplate Washer (Dyantech Labs) and 75 µl of Lysis Buffer 2 were added to each well (Lysis Buffer 2 is the same as Lysis buffer 1 exept that the ATP and DTT concentrations were changed to 2.67 mM and 133 mM, respectively). […]

Where [3] appears, read: Table 2 A) transcriptional activators.

As to “Interleukin-1 beta: Interleukin-1 beta, known transcriptional inducer”, the “G-CSF promoter induction, clone G 1002” value with G-CSF promoter was found to be 2.6 fold.
On to `CC1(C)C2CCC1(C)C(O)C2` (stereo not shown) [Chemical 1635], for which the “GCSF fold inhibition relative to solvent control” value in the data set on human G-CSF promoter was determined as 0.71 fold. Besides, the “MMTV fold inhibition relative to solvent control” value in data set [1] came out at 0.99 fold. Moreover, the “hGH fold inhibition relative to solvent control” value in data set [2] is reported as 9.09 fold.
For the compound `Nc1nc(=O)n(C2CC(O)C(CO)O2)cc1Br` (stereo not shown) [Chemical 542], the “GCSF fold induction relative to solvent control” value with human G-CSF promoter (setting [3]) is reported as 6.28 fold. Moreover, the “MMTV fold induction relative to solvent control” value in data set [1] (setting [3]) is 1.26 fold. Also, the “hGH fold induction relative to solvent control” value in data set [2] (setting [3]) came out at 1.08 fold.
For the compound `CC12CCC(CC1=O)C2(C)C` (stereo not shown) [Chemical 1720], the “GCSF fold inhibition relative to solvent control” value in the data set on human G-CSF promoter came to 0.65 fold. Besides, the “MMTV fold inhibition relative to solvent control” value in data set [1] turned out to be 0.66 fold. For the same compound, the “hGH fold inhibition relative to solvent control” value in data set [2] is recorded as 4.76 fold.
